The source made the active and inactive calls. The calls are words filed in the database; no cut-off is given here.

By EC50 is commonly meant the concentration at which the effect is half-maximal. A high value points to lower potency in that assay.

Test [1] deals with Transient receptor potential cation channel subfamily A member 1 (Mus musculus) (UniProt Q8BLA8). Briefly: Binding affinity to mouse TRPA1 expressed in HEK293T cells at 100 uM assessed as covalent protein modification. The class given is cell-based. As to conditions: HEK-293T.
Transient receptor potential cation channel subfamily A member 1 (Mus musculus), sequence (Q8BLA8 whole entry): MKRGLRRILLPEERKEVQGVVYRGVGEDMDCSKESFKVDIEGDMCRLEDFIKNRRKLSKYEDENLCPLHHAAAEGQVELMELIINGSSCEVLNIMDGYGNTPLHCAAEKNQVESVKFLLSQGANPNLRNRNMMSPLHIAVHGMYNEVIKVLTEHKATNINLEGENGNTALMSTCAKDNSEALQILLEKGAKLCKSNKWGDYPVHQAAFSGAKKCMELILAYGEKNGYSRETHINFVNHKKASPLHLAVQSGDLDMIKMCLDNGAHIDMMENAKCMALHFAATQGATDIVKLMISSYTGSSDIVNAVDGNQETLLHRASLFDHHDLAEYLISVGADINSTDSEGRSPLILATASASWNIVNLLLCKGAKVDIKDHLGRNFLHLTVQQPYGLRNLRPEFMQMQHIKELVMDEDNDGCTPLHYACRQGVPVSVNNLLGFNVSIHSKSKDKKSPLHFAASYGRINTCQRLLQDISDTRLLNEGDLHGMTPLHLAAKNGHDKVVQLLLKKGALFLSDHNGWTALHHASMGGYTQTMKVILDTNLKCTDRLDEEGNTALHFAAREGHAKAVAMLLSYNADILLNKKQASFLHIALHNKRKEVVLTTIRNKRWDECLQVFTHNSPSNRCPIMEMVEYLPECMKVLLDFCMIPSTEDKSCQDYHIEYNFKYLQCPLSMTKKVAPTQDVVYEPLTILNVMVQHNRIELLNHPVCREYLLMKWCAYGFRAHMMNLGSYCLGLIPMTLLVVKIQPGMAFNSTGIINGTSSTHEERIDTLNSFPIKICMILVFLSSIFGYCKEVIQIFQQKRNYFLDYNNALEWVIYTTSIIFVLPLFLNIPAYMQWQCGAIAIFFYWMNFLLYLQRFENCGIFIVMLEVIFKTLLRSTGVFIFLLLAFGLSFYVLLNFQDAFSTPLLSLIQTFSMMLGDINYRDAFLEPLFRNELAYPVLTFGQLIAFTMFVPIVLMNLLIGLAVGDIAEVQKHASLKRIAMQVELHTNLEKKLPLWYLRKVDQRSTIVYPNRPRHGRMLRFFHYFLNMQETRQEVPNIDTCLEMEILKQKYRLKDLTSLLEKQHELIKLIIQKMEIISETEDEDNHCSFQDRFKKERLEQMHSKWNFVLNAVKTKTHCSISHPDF
The target in test [2] is Transient receptor potential cation channel subfamily A member 1 (Homo sapiens, UniProt O75762). Briefly: Activation of TRPA1.
Transient receptor potential cation channel subfamily A member 1, sequence (O75762 whole entry): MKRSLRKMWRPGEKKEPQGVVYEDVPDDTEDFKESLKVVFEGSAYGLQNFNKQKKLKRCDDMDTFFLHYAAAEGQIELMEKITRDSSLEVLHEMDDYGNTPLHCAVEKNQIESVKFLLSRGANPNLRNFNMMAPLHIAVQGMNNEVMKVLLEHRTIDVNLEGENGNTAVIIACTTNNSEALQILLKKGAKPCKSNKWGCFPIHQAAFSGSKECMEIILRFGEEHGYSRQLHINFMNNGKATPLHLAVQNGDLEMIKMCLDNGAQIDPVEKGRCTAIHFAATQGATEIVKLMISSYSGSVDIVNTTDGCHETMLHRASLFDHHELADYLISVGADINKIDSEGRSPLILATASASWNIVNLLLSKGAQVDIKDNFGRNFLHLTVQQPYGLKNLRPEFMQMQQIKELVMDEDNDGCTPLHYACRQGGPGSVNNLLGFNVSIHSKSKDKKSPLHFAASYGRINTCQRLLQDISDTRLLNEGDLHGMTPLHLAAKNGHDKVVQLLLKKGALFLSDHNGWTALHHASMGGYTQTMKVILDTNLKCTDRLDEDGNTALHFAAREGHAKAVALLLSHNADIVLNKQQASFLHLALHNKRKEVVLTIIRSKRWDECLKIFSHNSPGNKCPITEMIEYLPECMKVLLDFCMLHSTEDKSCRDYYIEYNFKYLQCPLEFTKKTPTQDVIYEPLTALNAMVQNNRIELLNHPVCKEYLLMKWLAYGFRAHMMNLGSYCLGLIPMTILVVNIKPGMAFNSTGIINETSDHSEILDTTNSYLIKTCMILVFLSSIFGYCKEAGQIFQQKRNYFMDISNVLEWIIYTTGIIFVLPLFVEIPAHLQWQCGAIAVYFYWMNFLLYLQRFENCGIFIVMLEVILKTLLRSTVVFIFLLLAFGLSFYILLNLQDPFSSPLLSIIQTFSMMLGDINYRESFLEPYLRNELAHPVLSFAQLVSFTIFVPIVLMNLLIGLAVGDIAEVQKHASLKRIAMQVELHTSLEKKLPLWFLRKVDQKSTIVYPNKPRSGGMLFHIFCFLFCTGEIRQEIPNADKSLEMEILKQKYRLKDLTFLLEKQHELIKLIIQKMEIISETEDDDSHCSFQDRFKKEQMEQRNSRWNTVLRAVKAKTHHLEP
For test [3], the target named is Transient receptor potential cation channel subfamily A member 1 (Mus musculus) (UniProt Q8BLA8). Briefly: Activation of mouse TRPA1 expressed in HEK293T cells at 100 uM assessed as activation of cation conductance by electrophysiology. The class given is cell-based. As to conditions: HEK-293T.
Test [4] has the same target. Description: Activation of mouse TRPA1 expressed in CHO cells assessed as increase in intracellular calcium level. The class given is cell-based. On the technique in general: A change in cytosolic calcium serves as a functional read-out for many receptors and channels.
The target is the same in test [5]. Briefly: Reversal of activation of mouse TRPA1 expressed in HEK293T cells at 400 uM in presence of dithiothreitol by electrophysiology. It counts as cell-based. The following applies: HEK-293T.
In test [6] the test system is Transient receptor potential cation channel subfamily A member 1 (Mus musculus), Q8BLA8 [C422S]. Description: Activation of mouse TRPA1 C422S mutant expressed in CHO cells at 100 uM by calcium imaging FLIPR assay. It counts as cell-based.
Transient receptor potential cation channel subfamily A member 1 (Mus musculus), Q8BLA8 [C422S], sequence (Q8BLA8 whole entry C422S): as the sequence (Q8BLA8 whole entry) above, with C422S counted along it
Test [7] deals with Transient receptor potential cation channel subfamily A member 1 (Mus musculus), Q8BLA8 [C415S]. Description: Activation of mouse TRPA1 C415S mutant expressed in CHO cells at 100 uM by calcium imaging FLIPR assay. It counts as cell-based.
Transient receptor potential cation channel subfamily A member 1 (Mus musculus), Q8BLA8 [C415S], sequence (Q8BLA8 whole entry C415S): as the sequence (Q8BLA8 whole entry) above, with C415S counted along it
In test [8] the test system is Transient receptor potential cation channel subfamily A member 1 (Mus musculus), Q8BLA8 [C622S]. Briefly: Activation of mouse TRPA1 C622S mutant expressed in CHO cells at 100 uM by calcium imaging FLIPR assay. The class given is cell-based.
Transient receptor potential cation channel subfamily A member 1 (Mus musculus), Q8BLA8 [C622S], sequence (Q8BLA8 whole entry C622S): as the sequence (Q8BLA8 whole entry) above, with C622S counted along it
The target of test [9] is Transient receptor potential cation channel subfamily A member 1 (Mus musculus) (UniProt Q8BLA8). Briefly: Activation of mouse TRPA1 expressed in CHO cells at 100 uM by calcium imaging FLIPR assay. It counts as cell-based.
The target is the same in test [10]. Description: Activation of mouse TRPA1 expressed in HEK293T cells at 30 uM assessed as activation of cation conductance by electrophysiology. It counts as cell-based. As to conditions: HEK-293T.
Test [11] shares this target. Briefly: Activation of mouse TRPA1 expressed in HEK293T cells at 50 uM assessed as activation of cation conductance by electrophysiology. The class given is cell-based. The following applies: HEK-293T.
For test [12] the target is unchanged. Briefly: Activation of mouse TRPA1 expressed in HEK293T cells at 50 uM in presence of dithiothreitol by electrophysiology. The following applies: HEK-293T. It counts as cell-based.

With `C#CCN=C=S` [PROPARGYL ISOTHIOCYANATE], the outcome in test [1] was Active. In [2], this compound returned a 50% effective concentration (EC50) of 18.4 µM.
The compound `C=CC=O` [ACROLEIN] had a concentration giving a half-maximal response (EC50) in test [2] of 5 µM. In other words, the single-digit micromolar range.
For the compound `O=C1NC(c2cccc([N+](=O)[O-])c2)=CCN1c1ccccc1O`, the result in [3] was Active.
In the case of `OC/C=C/c1ccccc1`, the result in test [2] was inactive.
Same read-out and setting: in the case of `CC(=O)CC1(O)C(=O)N(C)c2ccccc21` (stereo not drawn) it was “inactive”.
As to `CS(=O)(=O)SCCN`, the result in test [4] and in [5] was Active. The response in test [2] was half-maximal at 1.58 µM (EC50).
For `O=C/C=C/c1ccccc1`, the result in [6], in test [7] and in test [8] was inactive. Also, the EC50 in test [2] is 19 µM.
`O=C1CCC(=O)N1O`: the result in test [9] was inactive.
Regarding `CCC=O`, in [2], the result was inactive.
Regarding `C#CCCCCNC(=O)CI` [IODOACETAMIDE ALKYNE], the outcome in test [1] was Active. The compound also gave a 50% effective concentration (EC50) in test [2] of 134 µM.
For `NC(=O)CI` [IODOACETAMIDE], the outcome in test [4] was Active. For the same compound, a half-maximal response in [2] (EC50) required 357 µM.
With `C#CCN1C(=O)/C(=C/C(C)=O)c2ccccc21`, in test [1], the result was Active. Besides, in [2], the concentration for a half-maximal effect (EC50) was found to be 0.1 µM.
On to `C=CCN=C=S`, for which the result in test [10] and in [4] was Active.
In turn, `CC/C=C/C=O` [PENTENAL] yielded an EC50 in test [2] of 5 µM.
Take `CC(=O)/C=C1/C(=O)N(C)c2ccccc21`: the result in test [11], in test [4] and in test [12] was Active. For the same compound, the EC50 in test [2] is 0.8 µM.

For the origin of these results see ChEMBL document CHEMBL1147055, “Noxious compounds activate TRPA1 ion channels through covalent modification of cysteines” (Nature, 2007).
